US20140024527A1, “HERBICIDAL PYRAZINONES” (E I DU DE NEMOURS AND COMPANY, priority 2011, published 2014)

Columns and labels:
Assay type in all cases: in vivo
[1] = test system: ducksalad (Heteranthera limosa); assay: Test B flooded paddy test; conditions: Flood, scale 0 to 100
Description: (§1) Plant species in the flooded paddy test consisted of rice (Oryza sativa), umbrella sedge (Cyperus difformis), ducksalad (Heteranthera limosa) and barnyardgrass (Echinochloa crus-galli) grown to the 2-leaf stage for testing. At time of treatment, test pots were flooded to 3 cm above the soil surface, treated by application of test compounds directly to the paddy water, and then maintained at that water depth for the duration of the test. Treated plants and controls were maintained in a greenhouse for 13 to 15 days, after which time all species were compared to controls and visually evaluated. Plant response ratings, summarized in Table B, are based on a scale of 0 to 100 where 0 is no effect and 100 is complete control. A dash (-) response means no test result.

rice (Oryza sativa) = assay: Test B flooded paddy test; conditions: Flood, scale 0 to 100
Description: as §1

[2] = test system: umbrella sedge (Cyperus difformis); assay: Test B flooded paddy test; conditions: Flood, scale 0 to 100
Description: as §1

[3] = test system: barnyardgrass (Echinochloa crus-galli); assay: Test B flooded paddy test; conditions: Flood
Description: as §1

[4] = test system: woolly cupgrass (Eriochloa villosa); assay: Test B postemergence; conditions: scale 0 to 100
Description: (§2) Seeds of plant species selected from blackgrass (Alopecurus myosuroides), downy bromegrass (Bromus tectorum), green foxtail (Setaria viridis), Italian ryegrass (Lolium multiflorum), wheat (Triticum aestivum), wild oat (Avena fatua), galium (Galium aparine), bermudagrass (Cynodon dactylon), Surinam grass (Brachiaria decumbens), cocklebur (Xanthium strumarium), corn (Zea mays), large crabgrass (Digitaria sanguinalis), woolly cupgrass (Eriochloa villosa), giant foxtail (Setaria faberii), goosegrass (Eleusine indica), johnsongrass (Sorghum halepense), kochia (Kochia scoparia), lambsquarters (Chenopodium album), morningglory (Ipomoea coccinea), yellow nutsedge (Cyperus esculentus), pigweed (Amaranthus retroflexus), ragweed (Ambrosia elatior), soybean (Glycine max), velvetleaf (Abutilon theophrasti), barley (Hordeum vulgare), canarygrass (Phalaris minor), chickweed (Stellaria media), deadnettle (Lamium amplexicaule) and windgrass (Apera spica-venti) were planted in pots containing Redi-Earth® planting medium (Scotts Company, Marysville, Ohio, USA) comprising spaghnum peat moss, vermiculite, wetting agent and starter nutrients and treated postemergence with test compounds formulated in a non-phytotoxic solvent mixture which included a surfactant. Plants ranged in height from 2 to 18 cm (1- to 4-leaf stage).
(§3) Treated plants and controls were maintained in a greenhouse for 13 to 15 days, after which time all species were compared to controls and visually evaluated. Plant response ratings, summarized in Table B, are based on a scale of 0 to 100 where 0 is no effect and 100 is complete control. A dash (-) response means no test result.

[5] = test system: bermudagrass (Cynodon dactylon); assay: Test B postemergence; conditions: scale 0 to 100
Description: as §2, §3

[6] = test system: chickweed (Stellaria media); assay: Test B postemergence; conditions: scale 0 to 100
Description: as §2, §3

[7] = test system: lambsquarters (Chenopodium album); assay: Test B postemergence; conditions: scale 0 to 100
Description: as §2, §3

[8] = test system: johnsongrass (Sorghum halepense); assay: Test B postemergence; conditions: scale 0 to 100
Description: as §2, §3

[9] = test system: ragweed (Ambrosia elatior); assay: Test B postemergence; conditions: scale 0 to 100
Description: as §2, §3

kochia (Kochia scoparia) = assay: Test B postemergence; conditions: scale 0 to 100
Description: as §2, §3

[10] = test system: Surinam grass (Brachiaria decumbens); assay: Test B postemergence; conditions: scale 0 to 100
Description: as §2, §3

[11] = test system: downy bromegrass (Bromus tectorum); assay: Test B postemergence; conditions: scale 0 to 100
Description: as §2, §3

corn (Zea mays) = assay: Test B postemergence; conditions: scale 0 to 100
Description: as §2, §3

[12] = test system: large crabgrass (Digitaria sanguinalis); assay: Test B postemergence; conditions: scale 0 to 100
Description: as §2, §3

[13] = test system: cocklebur (Xanthium strumarium); assay: Test B postemergence; conditions: scale 0 to 100
Description: as §2, §3

[14] = test system: morningglory (Ipomoea coccinea); assay: Test B postemergence; conditions: scale 0 to 100
Description: as §2, §3

[15] = test system: wheat (Triticum aestivum); assay: Test B postemergence; conditions: scale 0 to 100
Description: as §2, §3

[16] = test system: deadnettle (Lamium amplexicaule); assay: Test B postemergence; conditions: scale 0 to 100
Description: as §2, §3

## COCCn1c(-c2cccc(F)c2)c(Cl)nc(C(=O)C2=C(O)CCCC2=O)c1=O [Compound 4, 5-chloro-6-(3-fluorophenyl)-3-[(2-hydroxy-6-oxo-1-cyclohexen-1-yl)carbonyl]-1-(2-methoxyethyl)-2(1H)pyrazinone]
[1]; 31 g ai/ha
  Plant response rating, Ducksalad: 60
[1]; 62 g ai/ha
  Plant response rating, Ducksalad: 65
[1]; 125 g ai/ha
  Plant response rating, Ducksalad: 75
[1]; 250 g ai/ha
  Plant response rating, Ducksalad: 85
Rice (Oryza sativa); 31 g ai/ha
  Plant response rating, Rice: 0
Rice (Oryza sativa); 62 g ai/ha
  Plant response rating, Rice: 0
Rice (Oryza sativa); 125 g ai/ha
  Plant response rating, Rice: 0
Rice (Oryza sativa); 250 g ai/ha
  Plant response rating, Rice: 30
[2]; 31 g ai/ha
  Plant response rating, Sedge, Umbrella: 75
[2]; 62 g ai/ha
  Plant response rating, Sedge, Umbrella: 75
[2]; 125 g ai/ha
  Plant response rating, Sedge, Umbrella: 75
[2]; 250 g ai/ha
  Plant response rating, Sedge, Umbrella: 80
[3]; 31 g ai/ha, scale 0 to 100
  Plant response rating, Barnyardgrass: 0
[3]; 62 g ai/ha, scale 0 to 100
  Plant response rating, Barnyardgrass: 0
[3]; 125 g ai/ha, scale 0 to 100
  Plant response rating, Barnyardgrass: 0
[3]; 250 g ai/ha, scale 0 to 100 (0 no effect, 100 complete control)
  Plant response rating, Barnyardgrass: 30
[4]; 31 g ai/ha
  Plant response rating, Cupgrass, Woolly: 50
[4]; 62 g ai/ha
  Plant response rating, Cupgrass, Woolly: 70
[4]; 125 g ai/ha
  Plant response rating, Cupgrass, Woolly: 75
[4]; 250 g ai/ha
  Plant response rating, Cupgrass, Woolly: 85
[5]; 31 g ai/ha
  Plant response rating, Bermudagrass: 5
[5]; 62 g ai/ha
  Plant response rating, Bermudagrass: 20
[5]; 125 g ai/ha
  Plant response rating, Bermudagrass: 35
[5]; 250 g ai/ha
  Plant response rating, Bermudagrass: 40
[6]; 31 g ai/ha
  Plant response rating, Chickweed: 5
[6]; 62 g ai/ha
  Plant response rating, Chickweed: 10
[6]; 125 g ai/ha
  Plant response rating, Chickweed: 15
[6]; 250 g ai/ha
  Plant response rating, Chickweed: 45
[7]; 31 g ai/ha
  Plant response rating, Lambsquarters: 95
[7]; 62 g ai/ha
  Plant response rating, Lambsquarters: 98
[7]; 125 g ai/ha
  Plant response rating, Lambsquarters: 98
[7]; 250 g ai/ha
  Plant response rating, Lambsquarters: 100
[8]; 31 g ai/ha
  Plant response rating, Johnsongrass: 60
[8]; 62 g ai/ha
  Plant response rating, Johnsongrass: 60
[8]; 125 g ai/ha
  Plant response rating, Johnsongrass: 75
[8]; 250 g ai/ha
  Plant response rating, Johnsongrass: 85
[9]; 31 g ai/ha
  Plant response rating, Ragweed: 50
[9]; 62 g ai/ha
  Plant response rating, Ragweed: 65
[9]; 125 g ai/ha
  Plant response rating, Ragweed: 75
[9]; 250 g ai/ha
  Plant response rating, Ragweed: 90
Kochia (Kochia scoparia); 31 g ai/ha
  Plant response rating, Kochia: 10
Kochia (Kochia scoparia); 62 g ai/ha
  Plant response rating, Kochia: 45
Kochia (Kochia scoparia); 125 g ai/ha
  Plant response rating, Kochia: 55
Kochia (Kochia scoparia); 250 g ai/ha
  Plant response rating, Kochia: 90
[10]; 31 g ai/ha
  Plant response rating, Surinam Grass: 55
[10]; 62 g ai/ha
  Plant response rating, Surinam Grass: 60
[10]; 125 g ai/ha
  Plant response rating, Surinam Grass: 65
[10]; 250 g ai/ha
  Plant response rating, Surinam Grass: 70
[11]; 31 g ai/ha
  Plant response rating, Bromegrass, Downy: 0
[11]; 62 g ai/ha
  Plant response rating, Bromegrass, Downy: 10
[11]; 125 g ai/ha
  Plant response rating, Bromegrass, Downy: 15
[11]; 250 g ai/ha
  Plant response rating, Bromegrass, Downy: 15
Corn (Zea mays); 31 g ai/ha
  Plant response rating, Corn: 0
Corn (Zea mays); 62 g ai/ha
  Plant response rating, Corn: 20
Corn (Zea mays); 125 g ai/ha
  Plant response rating, Corn: 35
Corn (Zea mays); 250 g ai/ha
  Plant response rating, Corn: 55
[12]; 31 g ai/ha
  Plant response rating, Crabgrass, Large: 70
[12]; 62 g ai/ha
  Plant response rating, Crabgrass, Large: 75
[12]; 125 g ai/ha
  Plant response rating, Crabgrass, Large: 80
[12]; 250 g ai/ha
  Plant response rating, Crabgrass, Large: 85
[13]; 31 g ai/ha
  Plant response rating, Cocklebur: 5
[13]; 62 g ai/ha
  Plant response rating, Cocklebur: 25
[13]; 125 g ai/ha
  Plant response rating, Cocklebur: 65
[13]; 250 g ai/ha
  Plant response rating, Cocklebur: 85
[14]; 31 g ai/ha
  Plant response rating, Morningglory: 90
[14]; 62 g ai/ha
  Plant response rating, Morningglory: 95
[14]; 125 g ai/ha
  Plant response rating, Morningglory: 95
[14]; 250 g ai/ha
  Plant response rating, Morningglory: 95
[15]; 31 g ai/ha
  Plant response rating, Wheat: 5
[15]; 62 g ai/ha
  Plant response rating, Wheat: 20
[15]; 125 g ai/ha
  Plant response rating, Wheat: 30
[15]; 250 g ai/ha
  Plant response rating, Wheat: 35
[16]; 31 g ai/ha
  Plant response rating, Deadnettle: 15
[16]; 62 g ai/ha
  Plant response rating, Deadnettle: 15
